Experimental data: patent US12310967B2, “Compositions and methods of treatment for neurological disorders comprising motor neuron diseases” (Gliapharm SA, priority 2017, dated 2025)

Columns and labels:
primary mouse astrocytes = assay: Extracellular lactate quantification, Example 2; assay type: cell-based; conditions: Astrocyte, 3 nM to 30 μM, 1.5 h, read-out: EC50 release of lactate
Method: Primary cultures of cerebrocortical astrocytes were obtained from 1 to 2-day-old OF1 mouse pups (Charles River). Briefly, cortices were isolated and minced in small pieces under a dissecting microscope. The cells were incubated for 30 min at 37° C. in a solution containing 20 U/ml papain, 1 mM L-cysteine and 10 kU/ml DNase I. After dissociation, papain activity was stopped by the addition of fetal calf serum (FCS). Single-cell suspension was then obtained by mechanical dissociation, which consisted in cells trituration in a DMEM D7777 medium supplemented with 44 mm NaHCO3, 10 ml/L antibiotic/antimycotic solution and 10% FCS. […]
Secretion of L-lactate was measured in the extracellular medium of 96-well plated astrocytes after 90 min stimulation (at 37° C., in 5% CO2/95% air conditions) with Vehicle (DMSO), the compounds of the invention (100 nM to 100 μM) or positive control. […] To quantify lactate concentrations in the extracellular medium, 200 μl of a 0.2M Glycine-semicarbazide buffer (pH 10) containing 3 mM NAD and 14 U/ml LDH was added to each well of a 96-well plate containing 30 μl aliquots of extracellular medium. […] Fluorescence intensity (340 nm excitation/450 nm emission), which represents the amount of NADH produced, was measured, and lactate concentration values were determined relative to a standard curve of L-lactate concentrations. […]

[1] = test system: cerebral extracellular lactate; assay: In vivo pharmacodynamics - lactate biosensors; parameters: species or system mouse; conditions: 100 mg/kg per os, AUC ratio vs vehicle
Method: Extracellular levels of lactate were monitored in vivo using lactate biosensors (Pinnacle Technology), according to the manufacturer's instructions. Cannulae were surgically implanted in mice cerebral cerebral motor cortex areas M1/M2 (coordinates: +1.94 mm (to bregma), lateral −1.4 mm (to mideline), ventral −1.0 mm (to dura)) 5-7 days before administration of the compounds. Drugs were administered per os as previously described, and cerebral levels of extracellular lactate were dynamically recorded for 6 hours. Mice were administered vehicle alone first, followed 3 hours later by vehicle or drug (10 or 100 mg/kg). Area Under the Curve (AUC) quantifying the fluctuations of extracellular lactate concentrations for each of the compound tested was calculated using Graphad Prism and the ratio of AUC after drug over Vehicle administration was calculated. Groups of 8 male mice were used for each condition.
To measure biological effect of lead molecules in vivo in the brain, lactate levels were quantified after administration of the drug by using lactate biosensors implanted in the cortex of freely moving mice.

[2] = In vivo pharmacokinetics (microdialysis of prefrontal cortex and plasma); parameters: species or system mouse; conditions: gavage 100 mg/kg; therapeutic range 100 nM to 1 uM
Method: Mice were anesthetized using isoflurane (2% and 800 mL/min 02). Before surgery, Finadyne (1 mg/kg, s.c.) was administered for analgesia during surgery and the post-surgical recovery period. A mixture of bupivacaine and epinephrine was used for local anesthesia of the incision site of the periost of the skull.
The animals were placed in a stereotaxic frame (Kopf instruments, USA). MetaQuant microdialysis probes with a 3 mm exposed polyacrylonitrile membrane (MQ-PAN 3/3, Brainlink, the Netherlands) were implanted into the prefrontal cortex (coordinates for the tip of the probe: AP=+2.0 mm (to bregma), lateral=−0.7 mm (to midline), ventral=−3.3 mm (to dura), with the incisor bar set at 0.0 mm and an angle of 8°). All coordinates were based on “The mouse brain in stereotaxic coordinates” by Paxinos and Franklin (2004). The probes were attached to the skull with a stainless steel screw and dental cement (Fuji Plus Capsules, Henry Schein, the Netherlands).
In the same surgical procedure, a catheter was placed into the jugular vein to accommodate blood sampling. An indwelling cannula was inserted into the right jugular vein, and exteriorized through an incision on top of the skull. […]
PK was measured for GP-04, GP-05, GP-07, GP-R1 and GP-P1 in the prefrontal cortex and plasma of wild type C56Bl/6 mice by CRO Brainsonline.

EC50 (primary mouse astrocytes)	levels in the prefrontal cortex [2]	SMILES	cerebral lactate [1]
590 nM	–	Cc1ccccc1NC(=O)C1CCCN(c2ncnc3oc(C)c(C)c23)C1 (stereo not drawn) [F228-0422]	–
–	–	N#Cc1ccc(C(=O)N2CCC(Nc3ncnc4c3CCC4)C2)cc1 (stereo not drawn) [T636-2387]	Significant increase
–	need chemical improvement	CC(=O)N1CCc2sc(S(=O)(=O)N3CCN(c4ccccc4C)CC3)cc2C1 [P025-0159]	Significant increase
–	at therapeutic range	COc1cc(C)c(Cl)cc1S(=O)(=O)NCc1ccncc1 [T5580243]	Significant increase
